Earlier results as cited in patent CN101444491A, “奥扎格雷钠微球冻干制剂及其制备方法” (HAINAN SHU ER PHARMACEUTICAL RESEARCH Co Ltd, priority 2008, dated 2009).

Legend:
[1] = after conversion into sodium salt (JP2001316265)

| stability in aqueous solution [1] | solubility in water | Structure (SMILES) |
| --- | --- | --- |
| 稳定性下降 | – | O=C(O)/C=C/c1ccc(Cn2ccnc2)cc1 [奥扎格雷钠, 钠盐] |
| – | 溶解度较小 | O=C(O)/C=C/c1ccc(Cn2ccnc2)cc1 [奥扎格雷] |
